Reference: patent US10189854B2, “Substituted pyrimidine compounds” (Grünenthal GmbH, priority 2014, dated 2019)

Biological target: human PDE4B1 (Homo sapiens (Human), UniProt Q07343)
Assay: cAMP HTRF assay to determine the activity of hPDE4B1
Assay type: biochemical
Settings: IC50 inhibition of PDE4B; human recombinant PDE4B1, cAMP HTRF assay
In short: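 Recombinant human PDE4B1 expressed in Sf9 cells (4.8 U) was incubated with 40 nM cAMP for 30 min at room temperature in Tris buffer, pH 7.8, with MgCl2, DTT and Tween 20. HTRF detection of remaining cAMP followed, with 1 mM IBMX stop, read 60 min later as the 665/620 nm ratio. Results are % inhibition versus control.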

human PDE4B1, sequence (Q07343 whole entry): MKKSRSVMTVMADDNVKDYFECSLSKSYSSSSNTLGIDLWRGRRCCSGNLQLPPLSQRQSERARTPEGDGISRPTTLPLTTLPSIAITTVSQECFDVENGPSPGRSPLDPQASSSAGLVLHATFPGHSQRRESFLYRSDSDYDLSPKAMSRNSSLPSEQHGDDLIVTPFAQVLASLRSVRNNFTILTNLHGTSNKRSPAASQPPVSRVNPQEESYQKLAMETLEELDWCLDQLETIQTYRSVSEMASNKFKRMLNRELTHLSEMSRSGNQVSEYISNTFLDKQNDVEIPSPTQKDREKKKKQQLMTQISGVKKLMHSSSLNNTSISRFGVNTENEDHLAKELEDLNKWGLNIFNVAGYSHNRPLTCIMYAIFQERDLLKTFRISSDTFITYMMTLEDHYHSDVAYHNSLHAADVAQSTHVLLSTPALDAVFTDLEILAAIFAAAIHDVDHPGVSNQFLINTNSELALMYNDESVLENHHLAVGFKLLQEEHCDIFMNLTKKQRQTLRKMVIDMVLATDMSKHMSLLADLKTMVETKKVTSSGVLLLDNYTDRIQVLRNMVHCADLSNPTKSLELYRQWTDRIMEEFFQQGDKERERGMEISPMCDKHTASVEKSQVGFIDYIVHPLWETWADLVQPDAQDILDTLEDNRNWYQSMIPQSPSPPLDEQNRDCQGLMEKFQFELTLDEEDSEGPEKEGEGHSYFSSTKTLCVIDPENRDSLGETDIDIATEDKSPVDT

| Compound | IC50 [µM] |
| --- | --- |
| CN1CCN(C(=O)c2ccc3c(c2)N(c2ncc(-c4ccccc4F)cn2)CC32CC2)CC1=O [Compound 38, 4-[1-[5-(2-Fluorophenyl)-pyrimidin-2-yl]spiro[1,2-dihydro-indole-3,1′-cyclopropane]-6-carbonyl]-1-methyl-piperazin-2-one] | < 0.1 |
| Morpholin-4-yl-[1-(5-pyridazin-3-yl-pyrimidin-2-yl)-spiro[1,2-di-hydro-indole-3,1′-cyclopropane]-6-yl]-methanone [Compound 191] | < 0.1 |
| CCN(C)C(=O)c1ccc2c(c1)N(c1ncc(-c3ccccc3F)cn1)CC21CC1 [Compound 90, N-Ethyl-1-[5-(2-fluorophenyl)-pyrimidin-2-yl]-N-methyl-spiro[1,2-dihydro-indole-3,1′-cyclopropane]-6-carboxylic acid amide] | 0.1 to 1 |
| [1-[5-(6-Methoxy-pyridazin-3-yl)-pyrimidin-2-yl]-spiro[1,2-dihydro-indole-3,1′-cyclopropane]-6-yl]-morpholin-4-yl-methanone [Compound 201] | < 0.1 |
| CCN1CCN(C(=O)c2ccc3c(c2)N(c2ncc(-c4ccccc4F)cn2)CC32CC2)CC1 [Compound 86, (4-Ethyl-piperazin-1-yl)-[1-[5-(2-fluorophenyl)-pyrimidin-2-yl]-spiro[1,2-dihydro-indole-3,1′-cyclopropane]-6-yl]methanone] | 0.1 to 1 |
| CC1(C)CN(c2ncc(-c3ccccc3F)cn2)c2cc(C(=O)N3CCOCC3)ccc21 [Compound 9, [1-[5-(2-Fluorophenyl)-pyrimidin-2-yl]-3,3-dimethyl-1,2-dihydro-indol-6-yl]-morpholin-4-yl-methanone] | 0.1 to 1 |
| C[C@@H]1CN(C(=O)c2ccc3c(c2)N(c2ncc(-c4ccccc4F)cn2)CC32CC2)C[C@H](C)O1 [Compound 104, [(2R,6S)-2,6-dimethyl-morpholin-4-yl]-[1-[5-(2-fluorophenyl)-pyrimidin-2-yl]-spiro[1,2-dihydro-indole-3,1′-cyclopropane]-6-yl]-methanone] | < 0.1 |
| CN(C)C(=O)c1ccc(-c2cnc(N3CC4(CC4)c4ccc(C(=O)N5CCOCC5)cc43)nc2)c(F)c1 [Compound 65, 3-Fluoro-N,N-dimethyl-4-[2-[6-(morpholine-4-carbonyl)-spiro[1,2-dihydro-indole-3,1′-cyclopropane]-1-yl]-pyrimidin-5-yl]-benzamide] | < 0.1 |
| Cc1ccccc1-c1cnc(N2CC3(CC3)c3ccc(C(=O)N4CCOCC4)cc32)nc1 [Compound 12, Morpholin-4-yl-[1-(5-o-tolyl-pyrimidin-2-yl)-spiro[1,2-dihydro-indole-3,1′-cyclopropane]-6-yl]-methanone] | < 0.1 |
| O=C(c1ccc2c(c1)N(c1ncc(-c3cc(OC(F)(F)F)ccc3F)cn1)CC21CC1)N1CCOCC1 [Compound 67, [1-[5-(2-Fluoro-5-(trifluoromethyloxy)-phenyl]-pyrimidin-2-yl]-spiro[1,2-dihydro-indole-3,1′-cyclopropane]-6-yl]-morpholin-4-yl-methanone] | 0.1 to 1 |
| O=C(c1ccc2c(c1)N(c1ncc(-c3ccccc3F)cn1)CC21CC1)N1CCSCC1 [Compound 93, [1-[5-(2-Fluorophenyl)-pyrimidin-2-yl]-spiro[1,2-dihydro-indole-3,1′-cyclopropane]-6-yl]thiomorpholin-4-yl-methanone] | < 0.1 |
| CN(CCO)C(=O)c1ccc2c(c1)N(c1ncc(-c3ccccc3F)cn1)CC21CC1 [Compound 95, 1-[5-(2-Fluorophenyl)-pyrimidin-2-yl]-N-(2-hydroxy-ethyl)-N-methyl-spiro[1,2-dihydro-indole-3,1′-cyclopropane]-6-carboxylic acid amide] | < 0.1 |

Second part, the compound after the results:

| IC50 [µM] | Compound |
| --- | --- |
| < 0.1 | O=C(c1ccc2c(c1)N(c1ncc(-c3ccccn3)cn1)CC21CC1)N1CCOCC1 [Compound 150, Moprholin-4-yl-[1-(5-pyridin-2-yl-pyrimidin-2-yl)-spiro[1,2-dihydro-indole-3,1′-cyclopropane]-6-yl]-methanone] |
| < 0.1 | O=C(c1ccc2c(c1)N(c1ncc(-c3ccc(F)cn3)cn1)CC21CC1)N1CCOCC1 [Compound 165, [1-[5-(5-Fluoro-pyridin-2-yl)-pyrimidin-2-yl]-spiro[1,2-dihydro-indole-3,1′-cyclopropane]-6-yl]-morpholin-4-yl-methanone] |
| < 0.1 | O=C(c1ccc2c(c1)N(c1ncc(-c3cccnc3F)cn1)CC21CC1)N1CCOCC1 [Compound 145, [1-[5-(2-Fluoro-pyridin-3-yl)-pyrimidin-2-yl]-spiro[1,2-dihydro-indole-3,1′-cyclopropane]-6-yl]-morpholin-4-yl-methanone] |
| < 0.1 | N#Cc1ccsc1-c1cnc(N2CC3(CC3)c3ccc(C(=O)N4CCOCC4)cc32)nc1 [Compound 153, 2-[2-[6-(Morpholine-4-carbonyl)-spiro[1,2-dihydro-indole-3,1′-cyclopropane]-1-yl]-pyrimidin-5-yl]-thiophene-3-carbonitrile] |
| < 0.1 | O=C(c1ccc2c(c1)N(c1ncc(-c3cncnc3)cn1)CC21CC1)N1CCOCC1 [Compound 162, Morpholin-4-yl-[1-(5-pyrimidin-5-yl-pyrimidin-2-yl)-spiro[1,2-dihydro-indole-3,1′-cyclopropane]-6-yl]-methanone] |
| < 0.1 | Cc1ccnc(-c2cnc(N3CC4(CC4)c4ccc(C(=O)N(C)CCO)cc43)nc2)c1 [Compound 210, N-(2-Hydroxy-ethyl)-N-methyl-1-[5-(4-methyl-pyridin-2-yl)-pyrimidin-2-yl]-spiro[1,2-dihydro-indole-3,1′-cyclopropane]-6-carboxylic acid amide] |
| < 0.1 | COc1ccnc(-c2cnc(N3CC4(CC4)c4ccc(C(=O)N5CCOCC5)cc43)nc2)c1 [Compound 182, [1-[5-(4-Methoxy-pyridin-2-yl)-pyrimidin-2-yl]-spiro[1,2-dihdyro-indole-3,1′-cyclopropane]-6-yl]-morpholin-4-yl-methanone] |
| 0.1 to 1 | CC1(C)CN(C(=O)c2ccc3c(c2)N(c2ncc(-c4ccccc4F)cn2)CC32CC2)CCO1 [Compound 105, (2,2-Dimethyl-morpholin-4-yl)-[1-[5-(2-fluorophenyl)-pyrimidin-2-yl]-spiro[1,2-dihydro-indole-3,1′-cyclopropane]-6-yl] methanone] |
| < 0.1 | Cn1ccc(-c2cnc(N3CC4(CC4)c4ccc(C(=O)N5CCOCC5)cc43)nc2)c1 [Compound 136, [1-[5-(1-Methyl-1H-pyrrol-3-yl)-pyrimidin-2-yl]-spiro[1,2-dihydro-indole-3,1′-cyclopropane]-6-yl]-morpholin-4-yl-methanone] |
| < 0.1 | CN(CCO)C(=O)c1ccc2c(c1)N(c1ncc(-c3cnn(C)c3)cn1)CC21CC1 [Compound 199, N-(2-Hydorxy-ethyl)-N-methyl-1-[5-(1-methyl-1H-pyrazol-4-yl)-pyrimidin-2-yl]-spiro[1,2-dihydro-indole-3,1′-cyclopropane]-6-carboxylic acid amide] |
| < 0.1 | O=C(c1ccc2c(c1)N(c1ncc(-c3ccncc3)cn1)CC21CC1)N1CCOCC1 [Compound 146, Morpholin-4-yl-[1-(5-pyridin-4-yl-pyrimidin-2-yl)-spiro[1,2-dihydro-indole-3,1′-cyclopropane]-6-yl]-methanone] |
